Literature values, collected in publication PMC4846294 (Bioorganic & medicinal chemistry, 2016).
Marks after values point to notes of the source that are not given here.

Legend:
[1] = tested on: tubulin; conditions: inhibitor 5 μM; cited from earlier work
[2] = tested on: NCI-H460 (lung); conditions: read-out: GI50 SRB Assay NCI-H460; cited from earlier work
[3] = tested on: purified bovine brain tubulin; conditions: read-out: Inhibition of Tubulin Polymerization IC50; cited from earlier work
[4] = tested on: SK-OV-3 (ovarian); conditions: read-out: GI50 SRB Assay SK-OV-3; cited from earlier work
[5] = tested on: DU-145 (prostate); conditions: read-out: GI50 SRB Assay DU-145; cited from earlier work

COc1ccc(/C=C\c2cc(OC)c(OC)c(OC)c2)c(O)c1O [CA1, combretastatin A-1]
Inhibition of Colchicine Binding (% Inhibition±SD) [1]: 99.6±0.7^b %
GI50 [2]: 15.3 ± 15.8 nM
IC50 [3]: 1900 nM
GI50 [4]: 38.4 ± 24.2 nM
GI50 [5]: 32.6 ± 17.3 nM
